Reference: ChEMBL document CHEMBL5104096, “Undecaprenol kinase: Function, mechanism and substrate specificity of a potential antibiotic target” (Eur J Med Chem, 2021)

What was measured:
[1] = test system: Streptococcus mutans; test: Substrate activity at wild-type Streptococcus mutans UdpK expressed in Escherichia coli C43(DE3) in presence of ATP/NADH by PK/LDH coupled assay
[2] = test system: Streptococcus mutans; test: Substrate activity at 6xHis-tagged Streptococcus mutans UdpK expressed in Escherichia coli BL-21(DE3) assessed as measuring ADP level in presence of ATP/NADH by PK/LDH coupled assay

Structure (SMILES) | Activity [1] | Activity [2] | other results
C/C(=C\CO)CCCC(C)CCCC(C)CCCC(C)C (stereo unspecified) | – | 5.6 µmol/mg/min | –
C#CCNCCC/C(C)=C/CC/C(C)=C/CC/C(C)=C/CC/C(C)=C\CC/C(C)=C\CC/C(C)=C\CC/C(C)=C\CC/C(C)=C\CC/C(C)=C\CC/C(C)=C\CO | 7.1 µmol/mg/min | – | –
CC(C)=CCC/C(C)=C/CC/C(C)=C/CC/C(C)=C/CC/C(C)=C\CC/C(C)=C\CC/C(C)=C\CC/C(C)=C\CC/C(C)=C\CC/C(C)=C\CC/C(C)=C\CO | – | – | Activity ([1]; tested as the 2H-labelled form): 9.4 µmol/mg/min
CCCCCCCCCCCCCCCCO | – | 1.9 µmol/mg/min | –
CCCCCCCCCCCO | – | 2.1 µmol/mg/min | –
CCCCCCCCCCCCCCCCCCCCO | – | 1.3 µmol/mg/min | –
C/C(=C/CC/C(C)=C\CC/C(C)=C\CC/C(C)=C\COC1CCCCO1)CC/C=C(/C)CC/C=C(/C)CC/C=C(/C)CC/C=C(\C)CC/C=C(\C)CC/C=C(\C)CCCO (stereo unspecified) | 3.4 µmol/mg/min | – | –
CC(C)=CCC/C(C)=C/CO | – | 6.2 µmol/mg/min | –
C/C(=C/CO)CC/C=C(/C)CC/C=C(/C)CC/C=C(/C)CC/C=C(/C)CC/C=C(/C)CC/C=C(/C)CC/C=C(\C)CC/C=C(\C)CC/C=C(\C)CCCNC1CC(C)(C)N([O])C(C)(C)C1 | 5.1 µmol/mg/min | – | –
CC(=O)SCCC/C(C)=C/CC/C(C)=C/CC/C(C)=C/CC/C(C)=C\CC/C(C)=C\CC/C(C)=C\CC/C(C)=C\CC/C(C)=C\CC/C(C)=C\CC/C(C)=C\CO | 11.8 µmol/mg/min | – | –
CC(C)=CCC/C(C)=C/CC/C(C)=C/CC/C(C)=C\CC/C(C)=C\CC/C(C)=C\CC/C(C)=C\CC/C(C)=C\CC/C(C)=C\CC/C(C)=C\CC/C(C)=C\CC/C(C)=C\CCC(C)CCO (stereo unspecified) | – | 4.5 µmol/mg/min | –
CC(C)=CCC/C(C)=C\CC/C(C)=C\CO | – | 21.2 µmol/mg/min | –
CC(C)=CCC/C(C)=C/CC/C(C)=C/CO | – | 11.5 µmol/mg/min | –
CC(C)=CCC/C(C)=C/CC/C(C)=C\CO | – | 5.4 µmol/mg/min | –
C/C(=C/CO)CC/C=C(/C)CC/C=C(/C)CC/C=C(/C)CC/C=C(/C)CC/C=C(/C)CC/C=C(/C)CC/C=C(\C)CC/C=C(\C)CC/C=C(\C)CCC1OC1(C)C (stereo unspecified) | 8.1 µmol/mg/min | – | –
C/C(=C/CO)CC/C=C(/C)CC/C=C(/C)CC/C=C(/C)CC/C=C(/C)CC/C=C(/C)CC/C=C(/C)CC/C=C(\C)CC/C=C(\C)CC/C=C(\C)CCCN=[N+]=[N-] | 10.8 µmol/mg/min | – | –

Second part, led by results:

Activity [1] | Activity [2] | Structure (SMILES) | other results
9.4 µmol/mg/min | – | C/C(=C/CO)CC/C=C(/C)CC/C=C(/C)CC/C=C(/C)CC/C=C(/C)CC/C=C(/C)CC/C=C(/C)CC/C=C(\C)CC/C=C(\C)CC/C=C(\C)CCCNc1ccc(N=[N+]=[N-])cc1 | –
– | 4.9 µmol/mg/min | CC(C)=CCC/C(C)=C/CC/C(C)=C/CC/C(C)=C/CC/C(C)=C/CC/C(C)=C/CC/C(C)=C/CC/C(C)=C/CC/C(C)=C/CO | –
– | 4 µmol/mg/min | C/C(=C/CO)CC/C=C(/C)CC/C=C(\C)CC/C=C(\C)CC/C=C(\C)CNS(=O)(=O)c1ccc(N=Nc2ccc(N(C)C)cc2)cc1 | –
6.9 µmol/mg/min | – | C/C(=C/CO)CC/C=C(/C)CC/C=C(/C)CC/C=C(/C)CC/C=C(/C)CC/C=C(/C)CC/C=C(/C)CC/C=C(\C)CC/C=C(\C)CC/C=C(\C)CCCNc1ccccc1C(N)=O | –
– | 5.9 µmol/mg/min | C/C(=C/CO)CC/C=C(\C)CC/C=C(\C)CC/C=C(\C)CC/C=C(\C)CNS(=O)(=O)c1ccc(N=Nc2ccc(N(C)C)cc2)cc1 | –
9 µmol/mg/min | – | C#Cc1cccc(NCCC/C(C)=C/CC/C(C)=C/CC/C(C)=C/CC/C(C)=C\CC/C(C)=C\CC/C(C)=C\CC/C(C)=C\CC/C(C)=C\CC/C(C)=C\CC/C(C)=C\CO)c1 | –
– | 9.3 µmol/mg/min | CC(C)=CCC/C(C)=C/CC/C(C)=C/CC/C(C)=C/CO | –
6.2 µmol/mg/min | – | C/C(=C/CO)CC/C=C(/C)CC/C=C(/C)CC/C=C(/C)CC/C=C(/C)CC/C=C(/C)CC/C=C(/C)CC/C=C(\C)CC/C=C(\C)CC/C=C(\C)CCCNc1cc2ccc3cccc4ccc(c1)c2c34 | –
– | 3.3 µmol/mg/min | C/C(=C\CO)CC/C=C(\C)CC/C=C(\C)CC/C=C(\C)CC/C=C(\C)CNS(=O)(=O)c1ccc(N=Nc2ccc(N(C)C)cc2)cc1 | –
– | 8.8 µmol/mg/min | CC(C)=CCC/C(C)=C/CC/C(C)=C/CC/C(C)=C\CC/C(C)=C\CC/C(C)=C\CC/C(C)=C\CO | –
– | 3.8 µmol/mg/min | CC(C)=CCC/C(C)=C/CC/C(C)=C/CC/C(C)=C\CC/C(C)=C\CC/C(C)=C\CC/C(C)=C\CC/C(C)=C\CO | –
9 µmol/mg/min | – | C/C(=C/CO)CC/C=C(/C)CC/C=C(/C)CC/C=C(/C)CC/C=C(/C)CC/C=C(/C)CC/C=C(/C)CC/C=C(\C)CC/C=C(\C)CC/C=C(\C)CCCNc1ccc([N+](=O)[O-])cc1 | –
5.1 µmol/mg/min | – | C/C(=C/CO)CC/C=C(/C)CC/C=C(/C)CC/C=C(/C)CC/C=C(/C)CC/C=C(/C)CC/C=C(/C)CC/C=C(\C)CC/C=C(\C)CC/C=C(\C)CCCNCc1ccc(C2(C(F)(F)F)N=N2)cc1 | –
– | 3.8 µmol/mg/min | CC(C)=CCC/C(C)=C/CC/C(C)=C/CC/C(C)=C/CC/C(C)=C\CC/C(C)=C\CC/C(C)=C\CC/C(C)=C\CC/C(C)=C\CC/C(C)=C\CO | –
– | 4.1 µmol/mg/min | C/C(=C/CO)CC/C=C(/C)CC/C=C(/C)CC/C=C(\C)CC/C=C(\C)CNS(=O)(=O)c1ccc(N=Nc2ccc(N(C)C)cc2)cc1 | –
